Earlier results on 1 molecule are cited in patent EP4643845A1, “COSMETIC COMPOSITION” (Shiseido Company, Ltd., priority 2022, dated 2024).

*1 amine or outer side, *2 acyl side, *3 side chain or, on linkers, in order; H or OH if unused. Where a SMILES comes first, the peptide text is derived from it. Bridges are numbered along the chain shown (N, C = ends). X1 = CC(C)CCCCCCCCCC(CC(=O)[*:1])O[*:2]

For this series the following is noted: according to relevant reports.

Regarding `CC(C)CCCCCCCCCC1CC(=O)NC(CCC(=O)O)C(=O)NC(CC(C)C)C(=O)NC(CC(C)C)C(=O)NC(C(C)C)C(=O)NC(CC(=O)O)C(=O)NC(CC(C)C)C(=O)NC(CC(C)C)C(=O)O1` (stereo not shown) [formula (1)] (ELLVDLL; linker N-C via X1; configuration not given here), the “critical micelle concentration (CMC)” value is 0.0003 % (mass fraction).
